# Experimental data: patent publication US20230123140A1, “DOSE TREATMENTS OF TAUOPATHIES” (AC Immune SA, priority 2020, published 2023)
# Experiments:
# [1] = Toxicokinetics in the 4-week mouse toxicity study; assay type: in vivo; settings: for AUC(0-t) / Cmax / Tmax: plasma
# Procedure: This study was conducted to evaluate the potential toxicity of ACI-3024 when given daily by oral gavage to CD1 mice for 4 weeks, followed by a 2-week recovery period. Doses of 100, 300 and 1000 mg/kg were administered by p.o. to 10 animals/sex/group daily. The control animals were administered vehicle. The dose volume was 10 mL/kg for all groups.
# healthy subjects = assay: First-in-human study, multiple ascending dose (MAD) part: safety and tolerability; assay type: in vivo; settings: MAD cohorts
# From the text: A First-In-Human, Randomized, Placebo-Controlled, Double-Blind, SAD/MAD Study to Assess the Safety, Tolerability, Pharmacokinetics, and Pharmacodynamics of ACI-3024
# The objective of the study is to assess the safety, tolerability, pharmacokinetics (PK), and pharmacodynamics (PD) of single ascending doses (SAD) and multiple ascending doses (MAD) of ACI-3024 in a first-in-human, randomized, placebo-controlled, double-blind, sequential SAD/MAD study with open-label food effect and pharmacodynamic assessment arms. The study comprises different parts to be conducted in Healthy Volunteers: • 1) one Single Ascending Dose (SAD) part in which several cohorts are being investigated with single ascending doses of ACI-3024. The food effect is also explored in this part. • 2) one Multiple Ascending Dose (MAD) part in which several cohorts are being investigated with multiple ascending doses of ACI-3024. Each study part is assessing the safety, tolerability, pharmacokinetics and pharmacodynamics of ACI-3024.
# This part was conducted in elderly non-Japanese healthy subjects (MAD HV1 to MAD HV3 cohorts) and in non-elderly Japanese and non-Japanese healthy male subjects (MAD HV4 cohort).
# The healthy subject part of Part III was a multiple dose, sequential group study. Overall, 30 healthy elderly male or female non Japanese subjects are being studied in 3 cohorts (Cohorts MAD HV1 to MAD-HV3), with each cohort consisting of 10 subjects. A cohort of 10 healthy non-elderly male Japanese and non-Japanese subjects were enrolled (MAD HV4) to collect safety, tolerability, PK, and PD biomarker data and to enable direct comparisons between non-elderly Japanese and non-Japanese subjects after multiple doses. The dose used in this cohort is based on previously conducted cohorts in non Japanese elderly healthy subjects to assess the effect of multiple doses in non-elderly male Japanese subjects compared to non-elderly non-Japanese male subjects. The MAD HV4 cohort was dosed in parallel with the MAD HV3 cohort. […]
# [2] = both sexes, mouse, Day 28, 300 mg/kg oral, average M/F CD-1 mice
# [3] = mouse, Day 28, 300 mg/kg oral, female CD-1 mice
# [4] = mouse, Day 28, 300 mg/kg oral, male CD-1 mice
compound,measurement,setting,value
Fc1ccc2c3c([nH]c2c1)CCN(c1ccc2oc(N4CCOCC4)nc2c1)C3 [ACI-3024],dose proportionality of plasma exposure,[1]; 100 to 1000 mg/kg,less than dose proportionally
same,AUC(0-t),[1]; [2],353 µg·h/mL
same,Cmax,[1]; [2],25800 ng/mL
same,Tmax,[1]; [2],4 h
same,Tmax,"[1]; female, CD1, mouse, oral, females, high-dose group (1000 mg/kg), delayed",24 h
same,sex difference in exposure,"[1]; in general, except 300 mg/kg/day on Day 28",higher exposure was observed in females than in males
same,AUC(0-t),[1]; [3],320 µg·h/mL
same,Cmax,[1]; [3],23400 ng/mL
same,Tmax,[1]; [3],4 h
same,AUC(0-t),[1]; [4],386 µg·h/mL
same,Cmax,[1]; [4],28300 ng/mL
same,Tmax,[1]; [4],4 h
same,accumulation,"[1]; repeated administrations, Day 1 vs. Day 28",slight ACI-3024 accumulation
same,serious adverse events of liver injury possibly related to study drug,healthy subjects; 14 days,2
same,AEs considered related or possibly related to study drug,"healthy subjects; 14 days, of 89 AEs",33
same,SAEs,healthy subjects; dose below 1000 mg/day,did not show SAEs
